Our source for the inhibition values is patent US20200157088A1, “BENZENE FUSED HETEROCYCLIC COMPOUND AND USE THEREOF” (TAIWANJ PHARMACEUTICALS CO., LTD., priority 2017, published 2020).

Usually inhibition stands for the share of the control response that was lost under treatment.

Where two headings read alike, the source gives them in different places.

This experiment has as its target T1, autotaxin (Homo sapiens, UniProt Q13822).
T1 construct: purchased Cayman 10803
As to the kind of experiment: Autotaxin inhibitor screening assay (choline release from LPC). The format is biochemical. As for the experimental part: Autotaxin activity was measured by choline release from LPC in presence or absence of compound.
Twenty (20) ng autotaxin (10803, Cayman, MI, USA) was incubated with 100 μM 14:0 LPC (855575P, Avanti, AL, USA) in a final volume of 100 μL buffer containing 50 mM Tris pH 8.0, 0.01% Triton X-100, 50 mM CaCl2, 1 unit/ml choline oxidase, 2 unit/ml HRP, 2 mM homovanilic acid (HVA). The relative amount of released choline was measured by HVA fluorescence in a 96-well plate. Fluorescent intensity was determined at λex/λem=320/450 nm every 60 seconds for 90 minutes with a SpectraMax i3 (Molecular Devices, CA, USA). Data analysis was performed using GraphPad Prism (GraphPad, La Jolla Calif., USA).
Inhibition %=[1−SlopeTA−SlopeBlank)/(Slopevehicle−SlopeBlank)]×100%

[1] abbreviates: inhibition of autotaxin enzyme activity at 1 μM compound, 100 μM 14:0 LPC, read-out: Inhibition.

Regarding `CN(C(=O)OCc1cc(Cl)cc(Cl)c1)c1csc2ccc(C3=CCN(C(=O)CN4C(=O)CSC4=S)CC3)cc12` [Compound 85], the inhibition at 1 µM under setting [1] is greater than 80%.

Compound `Cc1cc(Cl)cc(COC(=O)N(C)C2CCc3ccc(C4=CCN(C(=O)CN5C(=O)CSC5=S)CC4)cc32)c1` (centres unmarked) [Compound 92] registered an inhibition at 1 µM greater than 80%.

Consider `CN(C(=O)OCc1cc(Cl)cc(C(F)(F)F)c1)C1CCc2ccc(C3=CCN(C(=O)CN4C(=O)CSC4=S)CC3)cc21` (centres unmarked) [Compound 93], for which the inhibition at 1 µM under setting [1] is greater than 80%.

`Cc1cc(COC(=O)N(C)C2CCc3ccc(C4=CCN(C(=O)CN5C(=O)CSC5=S)CC4)cc32)cc(C(F)(F)F)c1` (centres unmarked) [Compound 94]: the inhibition at 1 µM under setting [1] was greater than 80%.

In the case of `CN(C(=O)OCc1cc(C(F)(F)F)cc(C(F)(F)F)c1)C1CCc2ccc(C3=CCN(C(=O)CN4C(=O)CSC4=S)CC3)cc21` (centres unmarked) [Compound 95], the inhibition at 1 µM under setting [1] is greater than 80%.

Turning to `CN(C(=O)OCc1cc(Cl)ccc1Cl)C1CCc2ccc(C3=CCN(C(=O)CN4C(=O)CSC4=S)CC3)cc21` (centres unmarked) [Compound 96], the inhibition at 1 µM under setting [1] is greater than 80%.

As for `CN(C(=O)OCc1cc(F)cc(Cl)c1)C1CCc2ccc(C3=CCN(C(=O)CN4C(=O)CSC4=S)CC3)cc21` (centres unmarked) [Compound 97], the inhibition at 1 µM is greater than 80%.

For the compound `Cc1oc2ccc(C3=CCN(C(=O)CN4C(=O)CSC4=S)CC3)cc2c1N(C)C(=O)OCc1cc(C(F)(F)F)cc(C(F)(F)F)c1` [Compound 102], under setting [1], the inhibition at 1 µM was greater than 80%.

As to `Cc1oc2ccc(C3=CCN(C(=O)CS(C)(=O)=O)CC3)cc2c1N(C)C(=O)OCc1cc(C(F)(F)F)cc(C(F)(F)F)c1` [Compound 103], the inhibition at 1 µM under setting [1] is 50 to 80%.

For the compound `CCN(C(=O)OCc1cc(C(F)(F)F)cc(C(F)(F)F)c1)c1c(C)oc2ccc(C3=CCN(C(=O)CN4C(=O)CSC4=S)CC3)cc12` [Compound 105], under setting [1], the inhibition at 1 µM was greater than 80%.

Take `Cc1c(N(C)C(=O)OCc2cc(C(F)(F)F)cc(C(F)(F)F)c2)c2cc(C3=CCN(C(=O)CN4C(=O)CSC4=S)CC3)ccc2n1C` [Compound 109]: under setting [1], the inhibition at 1 µM was in the range of 50 to 80%.

Consider `COc1cc(C2=CCN(C(=O)CN3C(=O)CSC3=S)CC2)cc2c(N(C)C(=O)OCc3cc(C(F)(F)F)cc(C(F)(F)F)c3)coc12` [Compound 112], for which, under setting [1], the inhibition at 1 µM was greater than 80%.

On to `CC1Cc2ccc(C3=CCN(C(=O)CN4C(=O)CSC4=S)CC3)cc2C1N(C)C(=O)OCc1cc(Cl)cc(Cl)c1` (centres unmarked) [Compound 117], for which the inhibition at 1 µM under setting [1] was greater than 80%.

As to `CCC1Cc2ccc(C3=CCN(C(=O)CN4C(=O)CSC4=S)CC3)cc2C1N(C)C(=O)OCc1cc(Cl)cc(Cl)c1` (centres unmarked) [Compound 119], the inhibition at 1 µM under setting [1] was 50 to 80%.

On to `CCC1Oc2ccc(C3=CCN(C(=O)CN4CCOCC4)CC3)cc2C1N(C)C(=O)OCc1cc(Cl)cc(Cl)c1` (centres unmarked) [Compound 120], for which the inhibition at 1 µM was less than 50%.

`CCC1Cc2ccc(C3=CCN(C(=O)CS(C)(=O)=O)CC3)cc2C1N(C)C(=O)OCc1cc(Cl)cc(Cl)c1` (centres unmarked) [Compound 121]: under setting [1], the inhibition at 1 µM is less than 50%.

`O=C(Nc1noc2ccc(C3=CCN(C(=O)CN4C(=O)CSC4=S)CC3)cc12)OCc1cc(Cl)cc(Cl)c1` [Compound 127]: the inhibition at 1 µM under setting [1] is 50 to 80%.

Turning to `CN(C(=O)OCc1cc(Cl)cc(Cl)c1)c1noc2ccc(C3=CCN(C(=O)CN4C(=O)CSC4=S)CC3)cc12` [Compound 128], the inhibition at 1 µM under setting [1] lay in the range of 50 to 80%.

Turning to `CCN(C(=O)OCc1cc(Cl)cc(Cl)c1)c1noc2ccc(C3=CCN(C(=O)CN4C(=O)CSC4=S)CC3)cc12` [Compound 129], under setting [1], the inhibition at 1 µM was 50 to 80%.

As to `CCN(C(=O)OCc1cc(Cl)cc(Cl)c1)C1CCc2ccc(C3=CCN(C(=O)CN4C(=O)CSC4=S)CC3)cc21` (centres unmarked) [Compound 130], the inhibition at 1 µM under setting [1] is greater than 80%.

Turning to `O=C(Nc1noc2ccc(C3=CCN(C(=O)CN4C(=O)CSC4=S)CC3)cc12)OCc1cc(C(F)(F)F)cc(C(F)(F)F)c1` [Compound 131], the inhibition at 1 µM under setting [1] lay in the range of 50 to 80%.

Regarding `CN(C(=O)OCc1cc(C(F)(F)F)cc(C(F)(F)F)c1)c1noc2ccc(C3=CCN(C(=O)CN4C(=O)CSC4=S)CC3)cc12` [Compound 132], the inhibition at 1 µM under setting [1] was 50 to 80%.

Turning to `CCN(C(=O)OCc1cc(C(F)(F)F)cc(C(F)(F)F)c1)c1noc2ccc(C3=CCN(C(=O)CN4C(=O)CSC4=S)CC3)cc12` [Compound 133], the inhibition at 1 µM under setting [1] lay in the range of 50 to 80%.

`CN(C(=O)CCc1cc(Cl)cc(Cl)c1)C1CCc2ccc(C3=CCN(C(=O)CN4C(=O)CSC4=S)CC3)cc21` (centres unmarked) [Compound 137]: the inhibition at 1 µM under setting [1] lay within 50 to 80%.

Turning to `CN(C(=O)CCc1cc(Cl)cc(Cl)c1)C1CCc2ccc(C3=CCN(C(=O)CCS(C)(=O)=O)CC3)cc21` (centres unmarked) [Compound 138], under setting [1], the inhibition at 1 µM lay in the range of 50 to 80%.

For the compound `CN(C(=O)OCc1cc(Cl)cc(Cl)c1)C1CCc2ccc(C3=CCN(C(=O)N4CCN(S(C)(=O)=O)C4=O)CC3)cc21` (centres unmarked) [Compound 139], under setting [1], the inhibition at 1 µM is less than 50%.
